pKi: −log10 of the molar value.
What follows are compounds tested against Proteasome (assay: Inhibitory activity against proteasome).
Format: subcellular

| SMILES | pKi |
| --- | --- |
| CS(=O)(=O)NCCCC[C@H](NC(=O)C(CCCCCCCCN1C(=O)c2ccccc2C1=O)C1CCCC1)C(=O)N[C@@H](Cc1ccccc1)C(=O)C(=O)NCCNS(=O)(=O)c1ccccc1 (stereo partly drawn) | 7.39 |
| O=C(NCCNS(=O)(=O)c1ccccc1)C(=O)[C@H](Cc1ccccc1)NC(=O)[C@H](CCCCNC(=O)c1cnccn1)NC(=O)C(CCCCCCCCN1C(=O)c2ccccc2C1=O)C1CCCC1 (stereo partly drawn) | 7.10 |
| N/C(=N\CCC[C@H](NC(=O)C(CCCCCCCCN1C(=O)c2ccccc2C1=O)C1CCCC1)C(=O)N[C@@H](Cc1ccccc1)C(=O)C(=O)NCCNS(=O)(=O)c1ccccc1)N[N+](=O)[O-] (stereo partly drawn) | 8.96 |
| CCNC(=O)C(=O)[C@H](Cc1ccccc1)NC(=O)[C@H](CCC/N=C(\N)N[N+](=O)[O-])NC(=O)C(CCCCCCCCN1C(=O)c2ccccc2C1=O)C1CCCC1 (stereo partly drawn) | 7.92 |
| CC(C)(C)OC(=O)NCCNC(=O)C(=O)[C@H](Cc1ccccc1)NC(=O)[C@H](CCC/N=C(\N)N[N+](=O)[O-])NC(=O)C(CCCCCCCCN1C(=O)c2ccccc2C1=O)C1CCCC1 (stereo partly drawn) | 8.66 |
| NCCNC(=O)C(=O)[C@H](Cc1ccccc1)NC(=O)[C@H](CCC/N=C(\N)N[N+](=O)[O-])NC(=O)C(CCCCCCCCN1C(=O)c2ccccc2C1=O)C1CCCC1 (stereo partly drawn) | 7.17 |
| NCCCC[C@H](NC(=O)C(CCCCCCCCN1C(=O)c2ccccc2C1=O)C1CCCC1)C(=O)N[C@@H](Cc1ccccc1)C(=O)C(=O)NCCNS(=O)(=O)c1ccccc1 (stereo partly drawn) | 7.66 |

These compounds were tested on Proteasome (assay: Inhibitory activity against proteasome at 100 nM concentration).
Format: subcellular

| inhibition [%] | SMILES |
| --- | --- |
| 34 | CC(C)(C)OC(=O)/N=C(\NCCC[C@H](NC(=O)C(CCCCCCCCN1C(=O)c2ccccc2C1=O)C1CCCC1)C(=O)N[C@@H](Cc1ccccc1)C(=O)C(=O)NCCNS(=O)(=O)c1ccccc1)NC(=O)OC(C)(C)C (stereo partly drawn) |
| 48 | CC(C)(C)OC(=O)NCCCC[C@H](NC(=O)C(CCCCCCCCN1C(=O)c2ccccc2C1=O)C1CCCC1)C(=O)N[C@@H](Cc1ccccc1)C(=O)C(=O)NCCNS(=O)(=O)c1ccccc1 (stereo partly drawn) |
| 31 | N=C(N)NCCC[C@H](NC(=O)C(CCCCCCCCN1C(=O)c2ccccc2C1=O)C1CCCC1)C(=O)N[C@@H](Cc1ccccc1)C(=O)C(=O)NCCNS(=O)(=O)c1ccccc1 (stereo partly drawn) |

These compounds were tested on Proteasome (assay: Inhibitory activity against proteasome at 1 uM concentration).
Format: subcellular

| SMILES | inhibition [%] |
| --- | --- |
| N/C(=N/CCCC(NC(=O)OCc1ccccc1)C(=O)N[C@@H](Cc1ccccc1)C(=O)C(=O)NCCNS(=O)(=O)c1ccccc1)N[N+](=O)[O-] (stereo partly drawn) | 34 |

Each compound was assayed on Proteasome (assay: Inhibitory activity against proteasome at 10 uM concentration).
Format: subcellular

| inhibition [%] | SMILES |
| --- | --- |
| 14 | CC(C)(C)OC(=O)N[C@@H](Cc1ccccc1)C(=O)C(=O)NCCNS(=O)(=O)c1ccccc1 |
| 12 | N[C@@H](Cc1ccccc1)C(=O)C(=O)NCCNS(=O)(=O)c1ccccc1 |

From ChEMBL document CHEMBL1131968, “P'-extended alpha-ketoamide inhibitors of proteasome” (Bioorg Med Chem Lett, 1999)
